RP-LC retention time data for 79 compounds are collected here from the METLIN SMRT retention time set (Domingo-Almenara et al. 2019).

This data set is described as follows: gradient 5% acetonitrile 3 min, to 50% in 2 min, to 85% in 15 min, held 3 min, 100 µL/min. The settings on record: column: Zorbax Extend-C18 2.1 x 50 mm; eluents: water / acetonitrile, 0.1% formic acid. Summed up:
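In both positive and negative ionization mode, a quadrupole time-of-flight mass spectrometer coupled to HPLC analyzed pure standards run in mixtures of ~100 molecules. The Zorbax Extend-C18 column (2.1 × 50 mm, 1.8 μm) was operated at 100 μL/min with water and acetonitrile, each containing 0.1% formic acid. The dead volume was 40 μL and the dwell volume 900 μL. Retention time came from adduct peaks that were computationally picked and individually inspected by hand.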
The compound `Cc1nc(C(=O)Nc2ccc(Cl)c(C)c2)c(C)o1` returned an RP-LC retention time of 1010 s. The same measure for `CC(O)(CNC(=O)NC1CCCCC1)c1ccc2c(c1)OCO2` (centres undefined): 709 s; for `CC(NC(=O)NC1CCCCC1)C(c1cccs1)N1CCN(C)CC1` (centres undefined): 573 s; for `CSc1ccc(CNC(=O)Cn2cc(-c3nnc(C)o3)c3ccccc32)cc1`: 812 s. The same measure for `CCOC(=O)c1c(C)c(CCC(=O)NCCN2CCCCC2)n(C)c1C`: 624 s; for `COc1ccc(N2CC(C(=O)NCCc3c[nH]c4ccccc34)CC2=O)cc1` (centres undefined): 725 s. The same measure for `COc1ccc(-c2nnc(COc3cccc(NC(=O)c4ccccn4)c3)o2)cc1`: 941 s. `CCN(CC)CCNC(=O)Cc1c(C)nc2c(-c3ccc(F)cc3)c(C)nn2c1C` yielded an RP-LC retention time of 661 s. The same measure for `CCc1nnc(-c2cn(CC(=O)NCc3ccc(SC)cc3)c3ccccc23)o1`: 880 s. The same measure for `O=C(NCCN1CCCC1)c1nc2ccccn2c1-c1ccc(F)cc1`: 611 s; for `CCCCOC(=O)COc1cc(O)c2c(=O)cc(-c3ccccc3)oc2c1`: 1230 s. The same measure for `CC(=O)NCC(=O)N1CCCn2ccnc2C1C1CCCC1` (centres undefined): 625 s.

The compound `COCCNC(=O)CN1c2ccccc2NC2=C(C(=O)CC(C)(C)C2)C1c1cccs1` (centres undefined) showed an RP-LC retention time of 727 s. The same measure for `O=c1c2c(CO)c(-c3ccccc3)nn2ccn1Cc1ccccc1Cl`: 961 s; for `O=C(c1csc(C(=O)N2CCCC2)n1)N1CCSCC1`: 700 s; for `COc1cccc(CC(=O)Nc2ccc(-c3nc(Cn4cccn4)c(C)o3)cc2)c1`: 848 s. The same measure for `O=C(c1ccccc1F)N1CCN(S(=O)(=O)c2cc3c4c(c2)CCC(=O)N4CCC3)CC1`: 762 s; for `O=C(NCC(c1ccsc1)N1CCc2ccccc2C1)C(=O)NC1CCCC1` (centres undefined): 592 s; for `COc1cccc(NC(=O)Nc2c(-c3ccccc3)nc3ccccn23)c1`: 665 s. The same measure for `CN1C(=O)C2CCCCN2c2ccc(C(=O)N3CCN(C(=O)c4ccco4)CC3)cc21` (centres undefined): 701 s; for `COc1ccc(-c2nnc(COc3ccc(NC(=O)c4ccc(Br)o4)cc3)o2)cc1`: 934 s; for `COc1ccc(Nc2c(-c3ccc(N4CCOCC4)cc3)nc3ncccn23)cc1OC`: 619 s.

The compound `CCNc1cc(N2CCCC(CCC(=O)NCCN3CCCCC3)C2)ncn1` (centres undefined) returned an RP-LC retention time of 551 s. The same measure for `CCc1csc(-c2ccc(S(=O)(=O)NCCN3CCC(C)CC3)s2)n1`: 718 s; for `Cc1ncc2c(n1)C[C@@H]1CC[C@H]2N1S(=O)(=O)c1ccccc1`: 695 s; for `Cn1cnc(S(=O)(=O)N2CCC3(CC2)N(c2ccccc2)C(=O)CS3=O)c1` (centres undefined): 593 s. The same measure for `CCCCNC(=O)CN1C(=O)CCn2nc(-c3cn(C)c4ccccc34)cc21`: 771 s; for `O=C(C1CCN(c2ccc3nncn3n2)CC1)N1CCN(c2ncccn2)CC1`: 604 s. The same measure for `O=c1n(CCOc2ccccc2)nc2ccc(S(=O)(=O)N3CCCCC3)cn12`: 922 s.

As to `Cc1noc2ncn(CC(=O)Nc3ccccc3F)c(=O)c12`, the RP-LC retention time amounted to 732 s. The same measure for `CN1Cc2ccccc2-n2ccnc2C12CCN(C(=O)c1cc(F)cc(F)c1)CC2`: 618 s. The same measure for `O=C1CCN(S(=O)(=O)c2ccccc2)CCCN(S(=O)(=O)Cc2ccccc2)CCN1`: 779 s. The same measure for `CC1Oc2ccc(S(=O)(=O)N3CCC(C(=O)NCc4ccc(Cl)cc4)CC3)cc2NC1=O` (centres undefined): 846 s; for `COC(=O)c1c(C)[nH]c(C(=O)N2CCC(CC(=O)NCc3ccccc3C)CC2)c1C`: 749 s; for `CN(C)c1cc(-n2cnc(C(=O)Nc3ccc4c(c3)OCO4)c2)ncn1`: 774 s.

Compound `CCOC(=O)CC1(NC(=O)N2CCc3c(c(C(=O)N4CCCCC4)nn3C)C2)CCCCC1` showed an RP-LC retention time of 810 s.

The compound `COCCNC(=O)c1nnn(Cc2ccc(Cl)cc2)c1-n1cccc1` came in with an RP-LC retention time of 890 s.

Consider `COCCN1C(=O)c2ccccc2C(C(=O)N2CCN(c3ccccn3)CC2)C1c1ccc(F)cc1` (centres undefined), for which the RP-LC retention time was 619 s. The same measure for `CC(=O)OC1CCN(C(=O)C(C)(C)C)CC1`: 726 s. The same measure for `CCOC(=O)c1cc(S(=O)(=O)N2CCCC2C(=O)Nc2ccc(C)c(C)c2)cn1C` (centres undefined): 1020 s. With `CCNc1cc(N2CCCC(CCC(=O)N3CCC(C)CC3)C2)ncn1` (centres undefined), the RP-LC retention time was determined as 676 s. The same measure for `Cc1csc(NC(=O)c2cn(Cc3cccc(F)c3)nc2OCc2cccc(F)c2)n1`: 1080 s; for `Cc1ccc(Nc2nc(C)cc(N3CCN(S(=O)(=O)c4c(C)cc(C)cc4C)CC3)n2)cc1`: 917 s.

Compound `Cc1ccc(-c2noc(CN3N=NC4C(=O)N(c5ccc(C)c(C)c5)C(=O)C43)n2)cc1C` (centres undefined) yielded an RP-LC retention time of 1140 s. The same measure for `COC(=O)c1c(C)[nH]c(C(=O)N2CCCC(C(=O)NCCC(C)C)C2)c1C` (centres undefined): 730 s; for `Cc1ccc2c(Nc3cc(F)cc(F)c3)c(C(=O)N3CCOCC3)cnc2n1`: 593 s. The same measure for `COc1ccc(C2C(C(=O)NCC3CCCO3)CCC(=O)N2c2cc(OC)c(OC)c(OC)c2)cc1` (centres undefined): 631 s. The same measure for `CCOC(=O)c1ccc(NC(=O)C2CCCN2S(=O)(=O)c2cc(C(=O)OC)n(C)c2)cc1` (centres undefined): 900 s. For the compound `CN1C(=O)c2cc(S(=O)(=O)Nc3cccc(Cl)c3)ccc2Oc2cccnc21`, the RP-LC retention time worked out at 952 s. The same measure for `CCCc1nc(-c2c(C)cc(C)nc2NC(=O)c2ccc(F)cc2Cl)no1`: 937 s.

In the case of `Cc1ccc(C2NC(=O)N(C)C3=C2C(=O)N(C(CC(C)C)C(=O)N2CCOCC2)C3)c(C)c1` (centres undefined), the RP-LC retention time turned out to be 708 s. The same measure for `Cc1nnc(-c2ccc3ccn(CC(=O)Nc4ccc(C)c(C)c4)c3c2)o1`: 882 s.

In the case of `COc1cccc(N2CCN(C(=O)C3CC(=O)N(c4ccc5oc(C)nc5c4)C3)CC2)c1` (centres undefined), the RP-LC retention time worked out at 752 s. The same measure for `CC(C)NC(=O)c1nnc(-c2ccc(S(=O)(=O)N3CCCC3)cc2)o1`: 779 s; for `Cc1ccccc1-n1ccn(Cc2nc(-c3ccc(Cl)cc3)no2)c(=O)c1=O`: 912 s.

As for `Cc1cccc(-c2nc(-c3ccc4c(c3)nc(C)c(=O)n4C)no2)c1`, the RP-LC retention time was 1120 s. The same measure for `CCOC(=O)c1cccc(Nc2nc(-c3cccnc3)nc3ccccc23)c1`: 832 s.

Compound `CCC(NC(=O)Cc1cn(C)c2ncccc12)c1cccs1` (centres undefined) returned an RP-LC retention time of 709 s. The same measure for `O=C1NC2(CCN(C(=O)Nc3ccc(F)cc3)CC2)Oc2ccccc21`: 742 s. For the compound `Cc1cc(NC(=O)Cn2c(=O)c3cc(C4CC4)nn3c3ncccc32)ccc1F`, the RP-LC retention time was found to be 818 s. The same measure for `COc1cc(Nc2nc(C(=O)NCCN(C)C)cc3occc23)cc(OC)c1OC`: 629 s. The same measure for `CC1CCN(S(=O)(=O)c2cccnc2Nc2ccc(Cl)cc2)CC1`: 1370 s; for `CC(CCc1ccccc1)NC(=O)c1cc2sccc2n1Cc1ccc(Cl)cc1` (centres undefined): 1260 s; for `Cc1oc(-c2[nH]ncc2C(=O)N2CCCC2)cc1S(=O)(=O)NCc1ccccc1Cl`: 715 s.

Take `CCOc1cc(=O)n2c(c1C(=O)NCC1CCCO1)CCCCC2` (centres undefined): the RP-LC retention time worked out at 610 s. The same measure for `COC(=O)c1cccc(NC(=O)c2nc(C)oc2C)c1`: 840 s; for `Cc1cc2nn(CC(=O)Nc3ccc(F)cc3Cl)c(=O)n2c(-c2ccccc2)n1`: 761 s. The same measure for `CC(C)NC(=O)c1ccc(OCC2CCN(C(=O)Cc3cccc(F)c3)CC2)cc1`: 845 s; for `COc1ccc(-c2ncc3c(n2)CCN(C(=O)Nc2ccc(C)cc2C)C3)cc1`: 644 s. The same measure for `O=C(Nc1ccccc1F)N1CCCC1c1nncn1-c1ccccc1` (centres undefined): 683 s.

The compound `O=C(NCc1cccc(F)c1)c1cn2cc(Cl)ccc2n1` came in with an RP-LC retention time of 799 s. The same measure for `COc1ccc(-c2nc3ccc(Cl)cn3c2Nc2ccc3c(c2)OCCO3)cc1`: 750 s; for `CCCn1c(CCNC(=O)c2ccc(CC)cc2)nc2cccnc21`: 723 s. `Cc1nc(C2CCCN2Cc2ccc(F)cc2F)n[nH]1` (centres undefined) had an RP-LC retention time of 560 s. The same measure for `CCCn1cc(C(=O)NCCCOC)c(S(=O)(=O)N2CCN(c3ccc(Cl)cc3)CC2)n1`: 1000 s; for `COC(=O)c1ncn2c1C(=O)N(c1cc(C)ccc1C)C(C)(C(=O)NC1CCCC1)C2` (centres undefined): 718 s.

With `O=S(=O)(Nc1ccccc1F)c1c[nH]c2ncccc12`, the RP-LC retention time amounted to 697 s. The same measure for `CCc1nn(C)c(=O)c2cc(S(=O)(=O)NC(C)c3ccccc3)cn12` (centres undefined): 870 s; for `Cc1cc(F)ccc1NS(=O)(=O)c1ccc(-c2c(C)noc2C)cc1`: 964 s.
